One data set concerns the target T1, cytokinin receptor CRE1 (Arabidopsis thaliana, UniProt Q9C5U0, S567G/T1018A).
T1 construct: expressed in transfected cells; host or cells: Saccharomyces cerevisiae TM182 (sln1Δ) transformed with p415CYC-CRE1
The data set can be described thus: Inhibition of intracellular signaling from plant-derived cytokinin receptor, growth of transformed yeast cell TM182-CRE1. The data set is classed as cell-based. The settings on record: for Relative growth rate (%) in test section of test substance to control section, Transformed cell TM182-CRE1 / Activity (%) of test substance for inhibiting intracellular signaling from plant-derived cytokinin receptor of cell: trans-zeatin 0.6 ppm, chemical substance 2 ppm; for Relative growth rate (%) in test section of test substance to control section, Transformed cell TM182-CRE1: 30° C., 24 hours, turbidity OD 600; for Activity (%) of test substance for inhibiting intracellular signaling from plant-derived cytokinin receptor of cell: = 100 − relative growth rate of TM182-CRE1. The protocol:
(§1) The transformed cell TM182-CRE1 and the transformed cell TM182-p415CYC1 obtained in Example 6 were each inoculated in 10 ml of a DOLU+Gal medium, and preincubated at 30° C. for 18 hours to obtain a preincubation liquid for each of the transformed cells. The preincubation liquid was diluted with a DOLU+Glu medium for the transformed cell TM182-CRE1 or with a DOLU+Gal medium for the transformed cell TM182-p415CYC1 until OD600=0.1 was reached, to obtain a preincubation dilution for each of the transformed cells.
(§2) To each well of a 96-well plate was added 1 μl of a 200 ppm solution of a test substance in dimethyl sulfoxide (DMSO) to prepare an Assay plate. At the same time, as controls, only 1 μl of DMSO was added to a part of wells. An assay plate for the transformed cell TM182-CRE1 and an assay plate for the transformed cell TM182-p415CYC1 were prepared.
(§3) A 10,000 ppm solution of trans-zeatin (cytokinin) in DMSO was 50-fold diluted with a DOLU+Gul medium to 200 ppm. The 200 ppm trans-zeatin solution was added in an amount of 3/1,000 volume to each of the above-described preincubation dilution to prepare each preincubation dilution containing trans-zeatin at 0.6 ppm. The 0.6 ppm preincubation dilution was added in an amount of 100 μl to each wells of the assay plate for each transformed cell. The plates were incubated at 30° C. for 24 hours. Then, turbidity (OD 600) of each well was measured by using a plate reader. The activity of the test substance for inhibiting intracellular signaling from a plant-derived cytokinin receptor of a cell was tested by comparing the measured turbidity with the turbidity of the control well.
(§4) (Relative growth rate in test section to control section) [%]=[(Turbidity in test section)−(Turbidity in blank)]/[(Turbidity in control section)−(Turbidity in blank)]×100 (Activity of inhibiting intracellular signaling from plant-derived cytokinin receptor of cell) [%]=100−(Relative growth rate in test section to control section)
(§5) In all cases, the existing concentration of trans-zeatin was adjusted to 0.6 ppm and the existing concentration of a chemical substance was adjusted to 2 ppm.
(§6) In all cases, the existing concentration of trans-zeatin was adjusted to 0.6 ppm and the existing concentration of a chemical substance was adjusted to 2 […].

Data set [1] has as its system transformed cell TM182-p415CYC1. The data set can be described thus: Control growth test with transformed yeast cell TM182-p415CYC1 (toxicity to yeast). It counts as cell-based. Particulars: trans-zeatin 0.6 ppm; chemical substance 2 ppm; 30° C., 24 hours; turbidity OD 600. The protocol: as §1, §2, §3, §4, §5, §6
Data set [2] concerns Arabidopsis thaliana. Briefly: Root growth-promoting activity test (Example 9). The data set is classed as in vivo. The settings on record: main root length vs control section, 22° C., 10 days. How it is done: (§7) Enshi standard medium having the following composition (see Table 10) was prepared. To cluster tubes was dispensed each 4 μl of a solution of a chemical substance in DMSO to a final concentration of 0.001 ppm to 10 ppm, and then, was dispensed each 600 μl of the sterilized Enshi standard medium. Then the resulting solution was well mixed. In each of the cluster tubes, 10-20 seeds of Arabidopsis thaliana were sown, and cultured at 22° C. for 10 days in the light. Then, the length of main roots (average main roots) generated from the seeds of Arabidopsis thaliana was measured. An average of eight repeats was determined, and a root growth rate was determined according to the following equation.
(§8) Root growth rate (%)=(Average main root length in chemical substance-treated section)/(Average main root length in control section)×100

The subject of data set [3] is Arabidopsis thaliana. Briefly: Root growth-promoting activity test (Example 22). The data set is classed as in vivo. Particulars: main root length vs control section, 22° C., 10 days. How it is done:
as §7, with “18)” for “10)”
as §8
Enshi standard medium determined having the following composition (Table 18) was prepared. A DMSO solution of a chemical substance was dispensed by 4 μl to cluster tubes to a final concentration of 0.001 ppm to 10 ppm and the sterilized Enshi standard medium was dispensed by 600 μl and then the resulting solution was well mixed. 10-20 seeds of A. thaliana per cluster tube were sown in the cluster tubes. After culture at 22° C. for 10 days in bright light, the length of main roots (average main roots) took from seeds of A. thaliana was measured. An average of eight repeats was determined and the root growth rate was determined.
Root growth rate (%)=(Average main root length of chemical substance-treated section)/(Average main root length of control section)×100

Setting [4] is: Arabidopsis thaliana, 240 h, test final concentration 5 ppm (concentration with highest root growth rate).
The mark [5] stands for this setting: test final concentration 5 ppm (highest root growth rate).
Setting [6] is: test final concentration 5 ppm (concentration with highest root growth rate).
[7] abbreviates: test final concentration 2.5 ppm (highest root growth rate).
[8] abbreviates: test final concentration 2.5 ppm (concentration with highest root growth rate).

SMILES strings stand for the structures.

T1 sequence (Q9C5U0 24-1080 S567G/T1018A): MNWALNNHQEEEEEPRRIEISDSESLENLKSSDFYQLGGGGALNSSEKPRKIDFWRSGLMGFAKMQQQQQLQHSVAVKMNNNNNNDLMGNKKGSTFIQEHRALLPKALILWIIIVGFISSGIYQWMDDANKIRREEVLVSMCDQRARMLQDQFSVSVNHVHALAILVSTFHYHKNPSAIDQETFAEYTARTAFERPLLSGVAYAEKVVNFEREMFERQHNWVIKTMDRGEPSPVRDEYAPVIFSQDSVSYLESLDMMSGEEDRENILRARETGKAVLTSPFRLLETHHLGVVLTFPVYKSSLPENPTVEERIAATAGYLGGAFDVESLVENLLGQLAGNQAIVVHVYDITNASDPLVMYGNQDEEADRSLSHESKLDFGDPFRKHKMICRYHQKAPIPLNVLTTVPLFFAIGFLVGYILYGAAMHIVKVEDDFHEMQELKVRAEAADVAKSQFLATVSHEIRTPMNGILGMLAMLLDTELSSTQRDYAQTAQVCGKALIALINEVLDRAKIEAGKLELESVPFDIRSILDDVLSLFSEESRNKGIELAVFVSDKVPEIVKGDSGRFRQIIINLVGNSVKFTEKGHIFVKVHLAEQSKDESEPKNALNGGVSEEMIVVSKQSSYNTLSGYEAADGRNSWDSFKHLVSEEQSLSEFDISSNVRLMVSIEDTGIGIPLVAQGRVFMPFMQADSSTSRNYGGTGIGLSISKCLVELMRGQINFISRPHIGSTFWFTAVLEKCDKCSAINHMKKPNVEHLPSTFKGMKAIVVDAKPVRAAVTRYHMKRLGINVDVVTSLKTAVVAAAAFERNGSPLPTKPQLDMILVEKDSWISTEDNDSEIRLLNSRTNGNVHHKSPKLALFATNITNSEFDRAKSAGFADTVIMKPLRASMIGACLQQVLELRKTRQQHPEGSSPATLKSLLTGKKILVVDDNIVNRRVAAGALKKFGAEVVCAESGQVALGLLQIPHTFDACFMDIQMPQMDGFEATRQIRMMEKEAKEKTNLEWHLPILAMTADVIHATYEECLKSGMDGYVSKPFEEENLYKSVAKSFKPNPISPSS

Usually melting point stands for the temperature of the solid-liquid transition. The compound `Clc1ccc2nc(Cl)nc(-c3ccccc3)c2c1` [Ia1-3, 2,6-dichloro-4-phenylquinazoline] yielded a melting point of 166.2 °C. Further, on cytokinin receptor CRE1 (read-out: Activity (%) of test substance for inhibiting intracellular signaling from plant-derived cytokinin receptor of cell), the inhibition at 2 ppm stood at 94.5%. The “Relative growth rate (%) in test section of test substance to control section, Transformed cell TM182-CRE1” value at cytokinin receptor CRE1 was 5.5%. Further, in data set [1], the “Relative growth rate (%) in test section of test substance to control section, Transformed cell TM182-p415CYC1” value is recorded as 113.9%. Further, in the data set on Arabidopsis thaliana [2] (setting [4]), the activity at 5 ppm is 138%.
In the case of `Nc1nc(-c2ccccc2)c2cc(Cl)cc(Cl)c2n1` [Ic12-4, 2-amino-6,8-dichloro-4-phenylquinazoline], the melting point worked out at 212.7 °C.
The compound `Clc1nc(-c2ccccc2)c2cccc(Cl)c2n1` [Ia1-11, 2,8-dichloro-4-phenylquinazoline] came in with a melting point of 154.4 °C.
For the compound `CC(O)CNc1nc(-c2ccccc2)c2cc(Cl)ccc2n1` (centres unmarked) [Ic3-39], on cytokinin receptor CRE1, the “Relative growth rate (%) in test section of test substance to control section, Transformed cell TM182-CRE1” value is given as −1.3% and the “Activity (%) of test substance for inhibiting intracellular signaling from plant-derived cytokinin receptor of cell” value is reported as 101.3%. Further, in data set [1], the “Relative growth rate (%) in test section of test substance to control section, Transformed cell TM182-p415CYC1” value amounted to 108.1%. Besides, the “Root growth-promoting activity (root growth rate)” value (“Root growth-promoting activity” for short) in the data set with Arabidopsis thaliana [3] (test final concentration 10 ppm (highest root growth rate)) was found to be 169.0%. Moreover, in the data set on Arabidopsis thaliana [2] (test final concentration 10 ppm (concentration with highest root growth rate)), the “Root growth-promoting activity” value came out at 169.0%.
In the case of `COCCCNc1nc(-c2ccccc2)c2cc(Cl)ccc2n1` [Ic3-38], the “Relative growth rate (%) in test section of test substance to control section, Transformed cell TM182-CRE1” value at cytokinin receptor CRE1 worked out at 1.2%. Also, the “Activity (%) of test substance for inhibiting intracellular signaling from plant-derived cytokinin receptor of cell” value on cytokinin receptor CRE1 stood at 98.8%. Further, the “Relative growth rate (%) in test section of test substance to control section, Transformed cell TM182-p415CYC1” value in data set [1] is on record as 99.4%. Moreover, the “Root growth-promoting activity” value in the data set with Arabidopsis thaliana [3] (setting [5]) and in the data set with Arabidopsis thaliana [2] (setting [6]) was 141.9% throughout.
In turn, `Clc1ccc2nc(NCCSSCCNc3nc(-c4ccccc4)c4cc(Cl)ccc4n3)nc(-c3ccccc3)c2c1` [Ic3-15, bis[2-(6-chloro-4-phenyl-2-quinazolinyl)aminoethyl]disulfide] showed a melting point of 159.2 °C. Besides, the activity at 5 ppm with Arabidopsis thaliana [2] (setting [4]) worked out at 131%.
In turn, `Clc1cc(Cl)c2nc(Cl)nc(-c3ccccc3)c2c1` [Ia1-12, 2,6,8-trichloro-4-phenylquinazoline] showed a melting point of 160.3 °C.
For `OCCOCCNc1nc(-c2ccccc2)c2cc(Cl)ccc2n1` [Ic3-40], at cytokinin receptor CRE1, the “Relative growth rate (%) in test section of test substance to control section, Transformed cell TM182-CRE1” value was found to be 0.7% and the “Activity (%) of test substance for inhibiting intracellular signaling from plant-derived cytokinin receptor of cell” value is given as 99.3%. The “Relative growth rate (%) in test section of test substance to control section, Transformed cell TM182-p415CYC1” value in data set [1] was determined as 123.4%. Also, the “Root growth-promoting activity” value in the data set with Arabidopsis thaliana [3] (test final concentration 0.625 ppm (highest root growth rate)) stood at 125.8%. Moreover, the “Root growth-promoting activity” value with Arabidopsis thaliana [2] (test final concentration 0.625 ppm (concentration with highest root growth rate)) worked out at 125.8%.
As to `COC(=O)CCNc1nc(-c2ccccc2)c2cc(Cl)ccc2n1` [Ic3-43], at cytokinin receptor CRE1, the “Relative growth rate (%) in test section of test substance to control section, Transformed cell TM182-CRE1” value is recorded as 0.8%. For the same compound, at cytokinin receptor CRE1, the “Activity (%) of test substance for inhibiting intracellular signaling from plant-derived cytokinin receptor of cell” value was determined as 99.2%. Also, the “Relative growth rate (%) in test section of test substance to control section, Transformed cell TM182-p415CYC1” value in data set [1] worked out at 122.0%. Further, the “Root growth-promoting activity” value with Arabidopsis thaliana [3] (setting [7]) and with Arabidopsis thaliana [2] (setting [8]) was 137.9% each time.
In the case of `OCCCNc1nc(-c2ccccc2)c2cc(Cl)cc(Cl)c2n1` [Ic12-1], at cytokinin receptor CRE1, the “Relative growth rate (%) in test section of test substance to control section, Transformed cell TM182-CRE1” value is 2.8% and the “Activity (%) of test substance for inhibiting intracellular signaling from plant-derived cytokinin receptor of cell” value worked out at 97.2%. For the same compound, the “Relative growth rate (%) in test section of test substance to control section, Transformed cell TM182-p415CYC1” value in data set [1] was 106.3%. Moreover, in the data set with Arabidopsis thaliana [3] (setting [7]), the “Root growth-promoting activity” value is on record as 184.6%. Further, the “Root growth-promoting activity” value with Arabidopsis thaliana [2] (setting [8]) amounted to 184.6%.
Regarding `OCCCNc1nc(-c2ccccc2)c2cccc(Cl)c2n1` [Ic11-1], at cytokinin receptor CRE1, the “Relative growth rate (%) in test section of test substance to control section, Transformed cell TM182-CRE1” value is reported as 2.2% and the “Activity (%) of test substance for inhibiting intracellular signaling from plant-derived cytokinin receptor of cell” value is given as 97.8%. Moreover, in data set [1], the “Relative growth rate (%) in test section of test substance to control section, Transformed cell TM182-p415CYC1” value was 114.5%. Besides, the “Root growth-promoting activity” value in the data set with Arabidopsis thaliana [3] (setting [5]) turned out to be 143.9%. Also, the “Root growth-promoting activity” value in the data set on Arabidopsis thaliana [2] (setting [6]) was 143.9%.
For the compound `CCOCCCNc1nc(-c2ccccc2)c2cc(Cl)ccc2n1` [Ic3-46], at cytokinin receptor CRE1, the “Relative growth rate (%) in test section of test substance to control section, Transformed cell TM182-CRE1” value came to 1.3% and the “Activity (%) of test substance for inhibiting intracellular signaling from plant-derived cytokinin receptor of cell” value was found to be 98.7%. Further, the “Relative growth rate (%) in test section of test substance to control section, Transformed cell TM182-p415CYC1” value in data set [1] is listed as 92.2%. The “Root growth-promoting activity” value in the data set on Arabidopsis thaliana [3] (setting [7]) stood at 121.6%. For the same compound, in the data set with Arabidopsis thaliana [2] (setting [8]), the “Root growth-promoting activity” value was determined as 121.6%.
Consider `SCCNc1nc(-c2ccccc2)c2cc(Cl)ccc2n1` [Ic3-13, 6-chloro-2-(2-mercaptoethylamino)-4-phenylquinazoline], for which the melting point came to 165.9 °C. Also, the activity at 10 ppm in the data set on Arabidopsis thaliana [2] (Arabidopsis thaliana, 240 h, test final concentration 10 ppm (concentration with highest root growth rate)) is 140%.
For the compound `CC(=CCNc1nc(-c2ccccc2)c2cc(Cl)ccc2n1)CO` [Ic3-18], at cytokinin receptor CRE1, the “Relative growth rate (%) in test section of test substance to control section, Transformed cell TM182-CRE1” value came out at 4.0% and the “Activity (%) of test substance for inhibiting intracellular signaling from plant-derived cytokinin receptor of cell” value was 96.0%. For the same compound, the “Relative growth rate (%) in test section of test substance to control section, Transformed cell TM182-p415CYC1” value in data set [1] is listed as 105.3%. The “Root growth-promoting activity” value with Arabidopsis thaliana [3] (setting [7]) turned out to be 139.5%. Further, in the data set on Arabidopsis thaliana [2] (setting [8]), the “Root growth-promoting activity” value is 139.5%.
Take `CCNc1nc(-c2ccccc2)c2cc(Cl)ccc2n1` [Ic3-24]: on cytokinin receptor CRE1, the “Relative growth rate (%) in test section of test substance to control section, Transformed cell TM182-CRE1” value is 2.1% and the “Activity (%) of test substance for inhibiting intracellular signaling from plant-derived cytokinin receptor of cell” value is reported as 97.9%. The “Relative growth rate (%) in test section of test substance to control section, Transformed cell TM182-p415CYC1” value in data set [1] came out at 112.5%. Besides, the “Root growth-promoting activity” value in the data set with Arabidopsis thaliana [3] (test final concentration 1.25 ppm (highest root growth rate)) amounted to 122.8%. In addition, in the data set with Arabidopsis thaliana [2] (test final concentration 1.25 ppm (concentration with highest root growth rate)), the “Root growth-promoting activity” value worked out at 122.8%.
Regarding `CC(=O)SCCNc1nc(-c2ccccc2)c2cc(Cl)ccc2n1` [Ic3-14, 2-(2-acetylthioethylamino)-6-chloro-4-phenylquinazoline], the melting point was 128.9 °C. The activity at 2.5 ppm with Arabidopsis thaliana [2] (Arabidopsis thaliana, 240 h, test final concentration 2.5 ppm (concentration with highest root growth rate)) came out at 126%.

These data come from patent US8722580B2, “Agent for inhibiting cytokinin signaling” (Sumitomo Chemical Company, Limited, priority 2006, dated 2014).
